Where two headings read alike, the source gives them in different places.
What was measured:
murine Aurora-A = target: T1, murine Aurora-A (Mus musculus, UniProt P97477); experiment: Aurora-A Screening Assay; type: biochemical
T1 construct: replaced with the full length protein encoding the murine Aurora-A; made in house; host or cells: sf9 insect cells
T1 sequence (P97477 1-395): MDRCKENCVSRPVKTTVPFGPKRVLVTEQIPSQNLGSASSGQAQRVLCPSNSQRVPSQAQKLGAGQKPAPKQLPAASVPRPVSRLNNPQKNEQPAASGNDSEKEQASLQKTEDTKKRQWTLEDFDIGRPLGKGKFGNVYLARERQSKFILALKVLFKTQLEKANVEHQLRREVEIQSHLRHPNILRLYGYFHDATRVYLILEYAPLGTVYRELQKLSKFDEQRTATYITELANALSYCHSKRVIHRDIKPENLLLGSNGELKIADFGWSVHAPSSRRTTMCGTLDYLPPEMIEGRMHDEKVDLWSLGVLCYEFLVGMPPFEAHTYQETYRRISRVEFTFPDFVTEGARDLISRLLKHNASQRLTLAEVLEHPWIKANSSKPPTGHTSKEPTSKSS
Protocol: (§1) A kinase reaction mixture was prepared containing 50 mM Tris-HCl pH=8, 10 mM MgCl2, 0.1 mM Na3PO4, 1 mM DTT, 10 μM ATP, 0.025 μM biotinylated histone-H1 peptide substrate and 0.2 μCuries per well ^33P-γ-ATP (2000-3000 Ci/mmol). 70 μL of the kinase reaction mixture was dispensed into the well of a streptavidin coated FlashPlate™ (Cat. # SMP103, NEN, Boston, Mass.). Then 1 μL of test compound stock in 100% DMSO was added to the wells resulting in a final concentration of 1% DMSO in the reaction with a 100 μL final reaction volume.
(§2) The CDK1:Cyclin-B protein was diluted in 50 mM Tris-HCl pH=8.0, 0.1% BSA at a concentration of 1 ng per μL and 30 μL (30 ng enzyme per test well) was added to each well to initiate the reaction. The reaction was incubated for one hour at 30° C. At the end of the 1 hour incubation, the reaction was terminated by aspirating the mixture from the plate and washing the wells twice with PBS containing 100 mM EDTA. The histone-H1 biotinylated peptide substrate became immobilized on the Flashplate™ and the incorporation of ^33P-γ-ATP was measured by reading the plate on a scintillation counter. Inhibition of the enzymatic activity of CDK1 was measured by observing a reduced amount of ^33P-γ-ATP incorporated into the immobilized peptide.
The Aurora-A kinase assay was carried out using the CDK kinase assay procedure except that the enzyme was replaced with the full length protein encoding the murine Aurora-A (Accession #GB BC014711) expressed and purified from sf9 insect cells.

CDK1:Cyclin-B = target: T2, CDK1:Cyclin-B (Homo sapiens, UniProt P06493); experiment: CDK1 Screening Assay; type: biochemical
T2 construct: purchased New England Biolabs, Beverly, Mass; 6020; host or cells: insect cells
T2 sequence (P06493 whole entry): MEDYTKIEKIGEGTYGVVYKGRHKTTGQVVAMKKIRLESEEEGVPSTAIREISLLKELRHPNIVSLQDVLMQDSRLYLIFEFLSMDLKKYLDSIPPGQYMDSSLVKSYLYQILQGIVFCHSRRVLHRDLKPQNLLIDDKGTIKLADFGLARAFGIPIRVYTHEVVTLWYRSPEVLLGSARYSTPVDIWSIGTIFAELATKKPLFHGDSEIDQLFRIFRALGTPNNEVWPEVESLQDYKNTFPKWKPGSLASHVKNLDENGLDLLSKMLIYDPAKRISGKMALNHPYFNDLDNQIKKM
T2 sequence (P14635 whole entry partner): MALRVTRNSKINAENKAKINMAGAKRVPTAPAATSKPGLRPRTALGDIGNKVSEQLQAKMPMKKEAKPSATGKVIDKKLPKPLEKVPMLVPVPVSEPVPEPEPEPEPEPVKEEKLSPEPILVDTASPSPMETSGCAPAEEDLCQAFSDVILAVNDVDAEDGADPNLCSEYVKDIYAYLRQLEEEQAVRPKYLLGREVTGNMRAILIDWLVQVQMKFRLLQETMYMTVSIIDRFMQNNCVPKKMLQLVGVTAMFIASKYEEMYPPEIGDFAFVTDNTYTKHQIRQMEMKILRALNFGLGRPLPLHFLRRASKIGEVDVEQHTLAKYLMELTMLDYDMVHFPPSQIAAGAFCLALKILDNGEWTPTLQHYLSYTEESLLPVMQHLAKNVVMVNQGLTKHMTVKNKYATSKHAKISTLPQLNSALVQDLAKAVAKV
Protocol: as §1, §2
The CDK1 used was isolated from insect cells expressing both the human CDK1 catalytic subunit and its positive regulatory subunit cyclin B (New England Biolabs, Beverly, Mass., Cat. #6020).

HER2 cytoplasmic domain = target: T3, HER2 cytoplasmic domain (Homo sapiens, UniProt P04626); experiment: HER2 Kinase Screening Assay; type: biochemical; conditions: > means no observed 50% inhibition at the indicated test concentration; ~ means approximately 50% inhibition at that concentration
T3 construct: polyhistidine (N)
T3 sequence (P04626 676-1255 limits assumed): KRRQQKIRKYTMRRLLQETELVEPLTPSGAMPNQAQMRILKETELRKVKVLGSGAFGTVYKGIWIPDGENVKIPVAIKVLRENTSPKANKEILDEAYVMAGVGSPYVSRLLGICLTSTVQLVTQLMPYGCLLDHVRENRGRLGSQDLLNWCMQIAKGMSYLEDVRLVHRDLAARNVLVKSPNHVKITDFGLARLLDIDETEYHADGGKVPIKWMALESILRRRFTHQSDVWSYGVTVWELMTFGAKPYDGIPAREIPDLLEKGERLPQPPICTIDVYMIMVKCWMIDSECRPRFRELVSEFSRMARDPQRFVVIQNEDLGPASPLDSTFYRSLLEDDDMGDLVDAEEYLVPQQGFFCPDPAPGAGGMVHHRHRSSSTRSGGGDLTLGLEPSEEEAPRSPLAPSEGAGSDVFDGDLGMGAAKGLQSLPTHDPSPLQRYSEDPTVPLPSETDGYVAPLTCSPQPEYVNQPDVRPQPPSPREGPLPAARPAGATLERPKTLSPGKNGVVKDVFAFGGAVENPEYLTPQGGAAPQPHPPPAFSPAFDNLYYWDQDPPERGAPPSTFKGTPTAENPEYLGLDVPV
Protocol: as §1, §2
The HER2 kinase assay was carried out using the CDK kinase assay procedure except that the enzyme was replaced with a HER2 construct containing a polyhistidine tag at the N-terminus followed by 24 additional amino acids and the HER2 cytoplasmic domain beginning at amino acid 676 (Accession #M11730) to the end.

[1] = test system: HeLa cervical adenocarcinoma; experiment: Inhibition of in vitro cell proliferation (HeLa); type: cell-based, human; conditions: 14C-thymidine incorporation;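 further: cells exposed to compound for 24 h, then labelled 24 h with methyl 14C-thymidine, with uptake into DNA counted by scintillation against DMSO-only control wells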
A375 malignant melanoma = experiment: Inhibition of in vitro cell proliferation (A375); type: cell-based, human;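 further: cells plated for 24 h, given compound for 24 h, then labelled with 14C-thymidine for another 24 h, with DMSO-only wells as control and counts read by scintillation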
[2] = target: T4, rat VEGF-R2 kinase domain (Rattus norvegicus, UniProt O08775); experiment: VEGF-R2 Screening Assay; type: biochemical
T4 construct: amino acids 786-1343 of the rat VEGF-R2 kinase domain; polyhistidine (N)
T4 sequence (O08775 786-1343): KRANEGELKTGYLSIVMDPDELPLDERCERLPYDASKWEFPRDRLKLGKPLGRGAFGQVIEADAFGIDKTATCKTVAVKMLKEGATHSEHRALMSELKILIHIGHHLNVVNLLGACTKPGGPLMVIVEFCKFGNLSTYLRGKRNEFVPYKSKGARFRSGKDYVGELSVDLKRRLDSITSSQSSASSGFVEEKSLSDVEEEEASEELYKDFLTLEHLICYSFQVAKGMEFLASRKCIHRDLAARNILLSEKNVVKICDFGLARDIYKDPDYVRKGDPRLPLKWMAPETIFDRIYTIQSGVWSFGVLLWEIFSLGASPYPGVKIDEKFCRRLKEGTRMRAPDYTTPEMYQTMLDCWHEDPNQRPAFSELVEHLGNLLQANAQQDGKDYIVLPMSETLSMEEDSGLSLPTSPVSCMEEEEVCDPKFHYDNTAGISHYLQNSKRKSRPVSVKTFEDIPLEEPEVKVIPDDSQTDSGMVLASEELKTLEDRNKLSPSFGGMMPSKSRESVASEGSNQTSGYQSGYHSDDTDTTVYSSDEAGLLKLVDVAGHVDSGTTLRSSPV

HCT-116 colon carcinoma = experiment: Inhibition of in vitro cell proliferation (HCT116); type: cell-based, human;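 further: cells exposed to compound for 24 h, then 14C-thymidine added for a further 24 h and its uptake into DNA counted by scintillation, DMSO-only wells as control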
[3] = Homo sapiens, A-375, 14C-thymidine incorporation
[4] = > means no observed 50% inhibition at the indicated test concentration, ~ means approximately 50% inhibition at that concentration, read-out: IC50 VEGF-R2
[5] = Homo sapiens, HCT-116, 14C-thymidine incorporation
[6] = > means no observed 50% inhibition at the indicated test concentration, ~ means approximately 50% inhibition at that concentration

Row | Structure (SMILES) | IC50 (murine Aurora-A) [µM] | IC50 (CDK1:Cyclin-B) [µM] | IC50 (HER2 cytoplasmic domain) [µM] | IC50 ([1]; Homo sapiens) [µM] | IC50 (A375 malignant melanoma; [3]) [µM] | IC50 [2, 4] [nM] | IC50 (HCT-116 colon carcinoma; [5]) [µM] | IC50 (murine Aurora-A; [6]) [µM] | IC50 (CDK1:Cyclin-B; [6]) [µM] | IC50 [1] [µM] | IC50 (A375 malignant melanoma; 14C-thymidine incorporation) [µM] | IC50 (HCT-116 colon carcinoma; 14C-thymidine incorporation) [µM] | IC50 ([2]; IC50 VEGF-R2) [nM]
1 | CCCNC(=O)n1c(C)cc2cc(Oc3ncnc(N)c3C=NOC)ccc21 [Cpd 48, 5-[6-amino-5-(methoxyimino-methyl)-pyrimidin-4-yloxy]-2-methyl-indole-1-carboxylic acid propylamide] | > 100 | > 100 | > 10 | 3.37 | 1.15 | 7.6 | 1.22 | – | – | – | – | – | –
2 | Cc1cc2c(F)c(Oc3ncnc(N)c3C=NOCCCCO)ccc2[nH]1 [Cpd 38, 4-amino-6-(4-fluoro-2-methyl-1H-indol-5-yloxy)-pyrimidine-5-carbaldehyde O-(4-hydroxy-butyl)-oxime] | > 100 | > 100 | 0.868 | 1.83 | 0.618 | 57.7 | 2.34 | – | – | – | – | – | –
3 | CON=Cc1c(N)ncnc1Oc1ccc(CC(=O)Nc2ccccc2)cc1 [Cpd 97, 2-{4-[6-amino-5-(methoxyimino-methyl)-pyrimidin-4-yloxy]-phenyl}-N-phenyl-acetamide] | > 100 | > 100 | 1.31 | > 10 | > 10 | 40.7 | > 10 | – | – | – | – | – | –
4 | C#CCNC(=O)Nc1ccc(Oc2ncnc(N)c2C=NOC)cc1Cl [Cpd 79, 1-{4-[6-amino-5-(methoxyimino-methyl)-pyrimidin-4-yloxy]-2-chloro-phenyl}-3-prop-2-ynyl-urea] | > 100 | > 100 | > 100 | 3.58 | 2.2 | 27.5 | 3.72 | – | – | – | – | – | –
5 | CON=Cc1c(N)ncnc1Oc1ccc(NC(=O)Nc2ccc(OC)cc2)c(Cl)c1 [Cpd 63, 1-{4-[6-amino-5-(methoxyimino-methyl)-pyrimidin-4-yloxy]-2-chloro-phenyl}-3-(4-methoxy-phenyl)-urea] | – | – | > 10 | – | – | 2.2 | – | > 100 | > 100 | > 10 | > 10 | > 10 | –
6 | CON=Cc1c(N)ncnc1Oc1ccc2c(c1)cc(C)n2C(=O)NCCO [Cpd 39, 5-[6-amino-5-(methoxyimino-methyl)-pyrimidin-4-yloxy]-2-methyl-indole-1-carboxylic acid (2-hydroxy-ethyl)-amide] | > 100 | > 100 | > 10 | 4.37 | 3.77 | 108 | 3.43 | – | – | – | – | – | –
7 | CON=Cc1c(N)ncnc1Oc1ccc(NC(=O)NCCCCN2CCCC2)c(Cl)c1 [Cpd 84, 1-{4-[6-amino-5-(methoxyimino-methyl)-pyrimidin-4-yloxy]-2-chloro-phenyl}-3-(4-pyrrolidin-1-yl-butyl)-urea] | > 10 | > 100 | > 10 | > 10 | > 1 | 759 | > 10 | – | – | – | – | – | –
8 | CON=Cc1c(N)ncnc1Oc1ccc(NC(=O)Nc2nc(C)c(C)s2)c(Cl)c1 [Cpd 92, 1-{4-[6-amino-5-(methoxyimino-methyl)-pyrimidin-4-yloxy]-2-chloro-phenyl}-3-(4,5-dimethyl-thiazol-2-yl)-urea] | > 100 | > 100 | > 1 | 23.4 | 6.92 | 2 | 16.9 | – | – | – | – | – | –
9 | CON=Cc1c(N)ncnc1Oc1ccc(NC(=O)Nc2ccccc2C)c(Cl)c1 [Cpd 75, 1-{4-[6-amino-5-(methoxyimino-methyl)-pyrimidin-4-yloxy]-2-chloro-phenyl}-3-o-tolyl-urea] | > 100 | > 100 | > 100 | > 100 | > 100 | 7.9 | > 100 | – | – | – | – | – | –
10 | CON=Cc1c(N)ncnc1Oc1ccc(NC(=O)Nc2ccc(OC)cc2)c(Cl)c1 [Cpd 62, 1-{4-[6-amino-5-(methoxyimino-methyl)-pyrimidin-4-yloxy]-2-chloro-phenyl}-3-(4-methoxy-phenyl)-urea] | > 100 | > 100 | > 100 | – | – | 1.6 | – | – | – | > 100 | > 100 | > 100 | –
11 | C=CCNC(=O)Nc1ccc(Oc2ncnc(N)c2C=NOC)cc1Cl [Cpd 53, 1-allyl-3-{4-[6-amino-5-(methoxyimino-methyl)-pyrimidin-4-yloxy]-2-chloro-phenyl}-urea] | > 100 | > 100 | > 10 | > 1 | > 1 | 19.1 | > 1 | – | – | – | – | – | –
12 | CON=Cc1c(N)ncnc1Oc1ccc(NC(=O)OC)c(Cl)c1 [Cpd 95, {4-[6-amino-5-(methoxyimino-methyl)-pyrimidin-4-yloxy]-2-chloro-phenyl}-carbamic acid methyl ester] | > 100 | > 100 | > 10 | 4.95 | 3.5 | 152 | 3.77 | – | – | – | – | – | –
13 | CON=Cc1c(N)ncnc1Oc1ccc(NC(=O)Nc2cccc(F)c2)c(Cl)c1 [Cpd 57, 1-{4-[6-amino-5-(methoxyimino-methyl)-pyrimidin-4-yloxy]-2-chloro-phenyl}-3-(3-fluoro-phenyl)-urea] | > 100 | > 100 | > 10 | > 10 | > 10 | 1.7 | > 10 | – | – | – | – | – | –
14 | CON=Cc1c(N)ncnc1Oc1ccc2c(c1)cc(C)n2C(=O)NCc1ccccc1 [Cpd 47, 5-[6-amino-5-(methoxyimino-methyl)-pyrimidin-4-yloxy]-2-methyl-indole-1-carboxylic acid benzylamide] | > 100 | > 100 | > 100 | > 10 | > 10 | > 100000 | > 10 | – | – | – | – | – | –
15 | CON=Cc1c(N)ncnc1Oc1ccc(NC(=O)NCCCO)c(Cl)c1 [Cpd 83, 1-{4-[6-amino-5-(methoxyimino-methyl)-pyrimidin-4-yloxy]-2-chloro-phenyl}-3-(3-hydroxy-propyl)-urea] | > 100 | > 100 | > 10 | 4.18 | 3.94 | – | 3.78 | – | – | – | – | – | 400
16 | CON=Cc1c(N)ncnc1Oc1ccc(NC(=O)Nc2ccccc2)c(Cl)c1 [Cpd 54, 1-{4-[6-amino-5-(methoxyimino-methyl)-pyrimidin-4-yloxy]-2-chloro-phenyl}-3-phenyl-urea] | > 100 | > 100 | > 100 | > 100 | > 100 | 3 | > 100 | – | – | – | – | – | –
17 | CON=Cc1c(N)ncnc1Oc1ccc(NC(=O)NCc2ccc(F)cc2F)c(Cl)c1 [Cpd 78, 1-{4-[6-amino-5-(methoxyimino-methyl)-pyrimidin-4-yloxy]-2-chloro-phenyl}-3-(2,4-difluoro-benzyl)-urea] | > 100 | > 100 | > 100 | > 100 | > 100 | 10.3 | > 100 | – | – | – | – | – | –
18 | CON=Cc1c(N)ncnc1Oc1ccc(NC(=O)Nc2cccnc2)c(Cl)c1 [Cpd 87, 1-{4-[6-amino-5-(methoxyimino-methyl)-pyrimidin-4-yloxy]-2-chloro-phenyl}-3-pyridin-3-yl-urea] | > 100 | > 100 | > 1 | 4.63 | 3.41 | 10 | 4.67 | – | – | – | – | – | –
